Experimental data published in PubChem BioAssay (NCI).
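Assay format: 96-well plates, 48-hour exposure. The concentration for 50% growth inhibition is given as GI50. TGI: total growth inhibition.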

Legend:
Assay in all cases: DTP human tumour cell line panel, 48 h
786-0 renal = system: 786-0 renal
A498 renal = system: A498 renal
A549 NSCLC = system: A549 NSCLC
ACHN renal = system: ACHN renal
BT-549 breast = system: BT-549 breast
CAKI-1 renal = system: CAKI-1 renal
CCRF-CEM leukemia = system: CCRF-CEM leukemia
COLO 205 colon = system: COLO 205 colon
DU-145 prostate = system: DU-145 prostate
EKVX NSCLC = system: EKVX NSCLC
HCC-2998 colon = system: HCC-2998 colon
HCT-116 colon = system: HCT-116 colon
HCT-15 colon = system: HCT-15 colon
HL-60(TB) leukemia = system: HL-60(TB) leukemia
HOP-62 NSCLC = system: HOP-62 NSCLC
HOP-92 NSCLC = system: HOP-92 NSCLC
HS 578T breast = system: HS 578T breast
IGROV1 ovarian = system: IGROV1 ovarian
KM12 colon = system: KM12 colon
LOX IMVI melanoma = system: LOX IMVI melanoma
M14 melanoma = system: M14 melanoma
MALME-3M melanoma = system: MALME-3M melanoma
MDA-MB-231 breast = system: MDA-MB-231 breast
MDA-MB-435 = system: MDA-MB-435
MOLT-4 leukemia = system: MOLT-4 leukemia
NCI-H226 lung = system: NCI-H226 lung
NCI-H23 lung = system: NCI-H23 lung
NCI-H460 lung = system: NCI-H460 lung
NCI-H522 lung = system: NCI-H522 lung
NCI/ADR-RES ovarian = system: NCI/ADR-RES ovarian
OVCAR-3 ovarian = system: OVCAR-3 ovarian
OVCAR-4 ovarian = system: OVCAR-4 ovarian
OVCAR-5 ovarian = system: OVCAR-5 ovarian
OVCAR-8 ovarian = system: OVCAR-8 ovarian
PC-3 prostate = system: PC-3 prostate
RPMI-8226 leukemia = system: RPMI-8226 leukemia
RXF 393 renal = system: RXF 393 renal
SF-268 CNS = system: SF-268 CNS
SF-295 CNS = system: SF-295 CNS
SF-539 CNS = system: SF-539 CNS
SK-MEL-2 melanoma = system: SK-MEL-2 melanoma
SK-MEL-28 melanoma = system: SK-MEL-28 melanoma
SK-MEL-5 melanoma = system: SK-MEL-5 melanoma
SK-OV-3 ovarian = system: SK-OV-3 ovarian
SN12C renal = system: SN12C renal
SNB-19 CNS = system: SNB-19 CNS
SNB-75 CNS = system: SNB-75 CNS
SW-620 colon = system: SW-620 colon
T-47D breast = system: T-47D breast
TK-10 renal = system: TK-10 renal
U251 CNS = system: U251 CNS
UACC-257 melanoma = system: UACC-257 melanoma
UACC-62 melanoma = system: UACC-62 melanoma
UO-31 renal = system: UO-31 renal

O=C(/C(=C\c1ccc([N+](=O)[O-])cc1)S(=O)Cc1ccc(F)cc1)c1ccc(F)cc1 (stereo not drawn)
GI50 (786-0 renal): 1.74 µM | TGI (786-0 renal): 3.92 µM | GI50 (A498 renal): 6.19 µM | TGI (A498 renal): 18.6 µM | GI50 (A549 NSCLC): 2.83 µM | TGI (A549 NSCLC): 10.2 µM | GI50 (ACHN renal): 2.33 µM | TGI (ACHN renal): 6.51 µM | GI50 (BT-549 breast): 1.96 µM | TGI (BT-549 breast): 3.88 µM | GI50 (CAKI-1 renal): 2.07 µM | TGI (CAKI-1 renal): 5.54 µM | GI50 (CCRF-CEM leukemia): 1.48 µM | TGI (CCRF-CEM leukemia): 6.75 µM | GI50 (COLO 205 colon): 1.91 µM | TGI (COLO 205 colon): 3.63 µM | GI50 (DU-145 prostate): 1.66 µM | TGI (DU-145 prostate): 3.06 µM | GI50 (EKVX NSCLC): 1.91 µM | TGI (EKVX NSCLC): 4.54 µM | GI50 (HCC-2998 colon): 1.69 µM | TGI (HCC-2998 colon): 3.22 µM | GI50 (HCT-116 colon): 1.64 µM | TGI (HCT-116 colon): 3.07 µM | GI50 (HCT-15 colon): 1.64 µM | TGI (HCT-15 colon): 4.43 µM | GI50 (HL-60(TB) leukemia): 2.09 µM | TGI (HL-60(TB) leukemia): 5.38 µM | GI50 (HOP-62 NSCLC): 2.74 µM | TGI (HOP-62 NSCLC): 8.28 µM | GI50 (HOP-92 NSCLC): 1.86 µM | TGI (HOP-92 NSCLC): 3.98 µM | GI50 (HS 578T breast): 3.3 µM | TGI (HS 578T breast): 75 µM | GI50 (IGROV1 ovarian): 1.69 µM | TGI (IGROV1 ovarian): 3.49 µM | GI50 (KM12 colon): 2.22 µM | TGI (KM12 colon): 5.46 µM | GI50 (LOX IMVI melanoma): 1.54 µM | TGI (LOX IMVI melanoma): 3.05 µM | GI50 (M14 melanoma): 1.79 µM | TGI (M14 melanoma): 3.76 µM | GI50 (MALME-3M melanoma): 1.64 µM | TGI (MALME-3M melanoma): 3.55 µM | GI50 (MDA-MB-231 breast): 1.99 µM | TGI (MDA-MB-231 breast): 4.35 µM | GI50 (MDA-MB-435): 1.84 µM | TGI (MDA-MB-435): 4.09 µM | GI50 (MOLT-4 leukemia): 1.51 µM | TGI (MOLT-4 leukemia): 5.06 µM | GI50 (NCI-H226 lung): 4.32 µM | TGI (NCI-H226 lung): 21.9 µM | GI50 (NCI-H23 lung): 1.91 µM | TGI (NCI-H23 lung): 4.1 µM | GI50 (NCI-H460 lung): 2.13 µM | TGI (NCI-H460 lung): 4.7 µM | GI50 (NCI-H522 lung): 1.77 µM | TGI (NCI-H522 lung): 3.31 µM | GI50 (NCI/ADR-RES ovarian): 2.43 µM | TGI (NCI/ADR-RES ovarian): 6.98 µM | GI50 (OVCAR-3 ovarian): 1.63 µM | TGI (OVCAR-3 ovarian): 3.01 µM | GI50 (OVCAR-4 ovarian): 1.84 µM | TGI (OVCAR-4 ovarian): 3.91 µM | GI50 (OVCAR-5 ovarian): 1.83 µM | TGI (OVCAR-5 ovarian): 3.67 µM | GI50 (OVCAR-8 ovarian): 2.17 µM | TGI (OVCAR-8 ovarian): 5.34 µM | GI50 (PC-3 prostate): 1.69 µM | TGI (PC-3 prostate): 3.47 µM | GI50 (RPMI-8226 leukemia): 1.3 µM | TGI (RPMI-8226 leukemia): 4.28 µM | GI50 (RXF 393 renal): 1.78 µM | TGI (RXF 393 renal): 3.38 µM | GI50 (SF-268 CNS): 2.11 µM | TGI (SF-268 CNS): 5.34 µM | GI50 (SF-295 CNS): 1.68 µM | TGI (SF-295 CNS): 3.72 µM | GI50 (SF-539 CNS): 1.69 µM | TGI (SF-539 CNS): 3.37 µM | GI50 (SK-MEL-2 melanoma): 2.2 µM | TGI (SK-MEL-2 melanoma): 5.47 µM | GI50 (SK-MEL-28 melanoma): 1.8 µM | TGI (SK-MEL-28 melanoma): 3.66 µM | GI50 (SK-MEL-5 melanoma): 1.8 µM | TGI (SK-MEL-5 melanoma): 3.5 µM | GI50 (SK-OV-3 ovarian): 11.8 µM | TGI (SK-OV-3 ovarian): 24.2 µM | GI50 (SN12C renal): 1.9 µM | TGI (SN12C renal): 3.99 µM | GI50 (SNB-19 CNS): 2.37 µM | TGI (SNB-19 CNS): 5.61 µM | GI50 (SNB-75 CNS): 3.28 µM | TGI (SNB-75 CNS): 15.3 µM | GI50 (SW-620 colon): 1.58 µM | TGI (SW-620 colon): 3.13 µM | GI50 (T-47D breast): 2.08 µM | TGI (T-47D breast): 6.57 µM | GI50 (TK-10 renal): 2.31 µM | TGI (TK-10 renal): 7 µM | GI50 (U251 CNS): 1.72 µM | TGI (U251 CNS): 3.44 µM | GI50 (UACC-257 melanoma): 1.79 µM | TGI (UACC-257 melanoma): 3.73 µM | GI50 (UACC-62 melanoma): 1.71 µM | TGI (UACC-62 melanoma): 3.25 µM | GI50 (UO-31 renal): 1.52 µM | TGI (UO-31 renal): 3.23 µM
